Assay [1] relates to SRB. As to the kind of experiment: Hydrogen sulfide inhibition in actual produced water from the Eagle Ford shale diluted to 3%, spiked with SRB. The class given is cell-based, sulfate-reducing bacteria (SRB). On the procedure: (§1) Hydrogen sulfide inhibition was tested in mock-produced water approximating water used in hydraulic fracturing operations and was made to a total dissolved solids concentration of 3% with a mixture of instant ocean and NaCl salts. The water was supplemented with nutrients and sulfate to allow SRB to metabolize and create H2S. The water was spiked with SRB and then treated with the various treatment conditions noted below in Table 3 and sealed. Treatment conditions were: Control: No biocide or nitrate.
(§2) 250 ppm 12.3 Glut/Quat Biocide: a mixture of glutaraldehyde and a quarternary ammonia compound was prepared NRB Program: (480 ppm Ca(NO3)2 with 1 ppm live NRB culture. 20 ppm, 40 ppm, 50 ppm, 60 ppm, 80 ppm, 100 ppm, 120 ppm, 150 ppm, and 200 ppm molybdate concentration-.
(§3) H2S was measured at intervals using H2S detecting Draeger tubes. Dissolved H2S was released into the gas phase with the addition of hydrochloric acid so that H2S could be measured with the Draeger tubes to get a complete reading of all H2S produced during the course of the example.
Samples were prepared in accordance with Example 1, except that actual produced water sourced from the Eagle Ford shale that was diluted to 3% using deionized water was used in the samples.

For assay [2], the system named is SRB. As to the kind of experiment: Hydrogen sulfide inhibition in mock-produced water spiked with SRB (Draeger tubes). The class given is cell-based, sulfate-reducing bacteria (SRB). Particulars: for Total H2S: mock-produced water. As for the experimental part: as §1, §2, §3

Where “and” joins values, the source holds several entries; their conditions need not be identical. Identical values can stand only once.

Take `[O]=[Mo](=[O])([O-])[O-]` [MoO4, molybdate]: the “Total H2S” value in the assay on SRB [1] (20 ppm MoO4) is recorded as 3188 ppm; in the assay with SRB [1] (50 ppm MoO4) it was 234 ppm; with SRB [1] (80 ppm MoO4), 172 ppm; in the assay on SRB [1] (100 ppm MoO4) it was 107 ppm; with SRB [1] (150 ppm MoO4), 160 ppm; with SRB [1] (200 ppm MoO4), 110 ppm. Moreover, the “Total H2S” value in the assay with SRB [2] (20 ppm MoO4) is 1974 ppm; with SRB [2] (40 ppm MoO4) it was 1066 ppm; in the assay with SRB [2] (50 ppm MoO4) it was 2262 ppm and 1536 ppm; in the assay on SRB [2] (60 ppm MoO4) it was 1846 ppm; with SRB [2] (80 ppm MoO4), 1866 ppm; in the assay with SRB [2] (100 ppm MoO4), 738 ppm. For the same molecule, the “Total H2S” value amounted to 890 ppm in the assay with SRB [2] (120 ppm MoO4), 176 ppm in the assay with SRB [2] (150 ppm MoO4) and 40 ppm in the assay on SRB [2] (200 ppm MoO4). The “Comparison with Glut/Quat biocide and NRB treatment” value was “competitive with other proven treatments” in the assay on SRB [1] (concentrations of 50 ppm and above); “competitive with other proven treatments” in the assay with SRB [2] (mock produced water, concentrations of 150 ppm and above). Also, the “Effect on H2S formation” value in the assay on SRB [1] (molybdate alone, even at lower concentrations) is recorded as “caused a strong reduction in H2S formation”; in the assay on SRB [2] (mock produced water, molybdate alone, even at lower concentrations) it was “caused a reduction in H2S formation”.

The values are drawn from patent publication US20190010380A1, “METHOD FOR CONTROLLING BACTERIA IN FORMATIONS USING MOLYBDATE” (priority 2017, published 2019).
